# Measurements taken from ChEMBL document CHEMBL3044672, “N9- and N7-(Chloromethyl Phenymethyl)Chloropurine Derivatives from , '-Dichloroxylenes: Synthesis and Anticancer Activity” (2005).
# Key:
# Assay type in all cases: functional
# [1] = tested on: A498; assay: Cytotoxicity against Homo sapiens (human) A498 cells after 48 hr by sulforhodamine B assay; details: A498, 48 h
# [2] = tested on: ACHN; assay: Cytotoxicity against Homo sapiens (human) ACHN cells after 48 hr by sulforhodamine B assay; details: for CC50: read-out: LC50 (the source's name)
# [3] = tested on: 786-0; assay: Cytotoxicity against Homo sapiens (human) 786-0 cells after 48 hr by sulforhodamine B assay; details: 786-0, 48 h
# [4] = tested on: OVCAR-4; assay: Cytotoxicity against Homo sapiens (human) OVCAR4 cells after 48 hr by sulforhodamine B assay; details: OVCAR-4, 48 h
# [5] = tested on: UACC-62; assay: Cytotoxicity against Homo sapiens (human) UACC62 cells after 48 hr by sulforhodamine B assay; details: UACC-62, 48 h
# [6] = tested on: UACC-257; assay: Cytotoxicity against Homo sapiens (human) UACC257 cells after 48 hr by sulforhodamine B assay; details: UACC-257, 48 h
# [7] = tested on: SNB-75; assay: Cytotoxicity against Homo sapiens (human) SNB75 cells after 48 hr by sulforhodamine B assay; details: SNB-75, 48 h; for CC50: read-out: LC50 (the source's name)
# [8] = tested on: SNB-19; assay: Cytotoxicity against Homo sapiens (human) SNB19 cells after 48 hr by sulforhodamine B assay; details: SNB-19, 48 h
# [9] = tested on: SF-539; assay: Cytotoxicity against Homo sapiens (human) SF539 cells after 48 hr by sulforhodamine B assay; details: SF-539, 48 h
# [10] = tested on: MDA-MB-435; assay: Cytotoxicity against Homo sapiens (human) MDA-MB-435 cells after 48 hr by sulforhodamine B assay; details: MDA-MB-435, 48 h
# [11] = tested on: Hs-578T; assay: Cytotoxicity against Homo sapiens (human) Hs 578T cells after 48 hr by sulforhodamine B assay
# [12] = tested on: MDA-MB-231; assay: Cytotoxicity against Homo sapiens (human) MDA-MB-231 cells after 48 hr by sulforhodamine B assay; details: MDA-MB-231, 48 h
# [13] = tested on: SN12C; assay: Cytotoxicity against Homo sapiens (human) SN12C cells after 48 hr by sulforhodamine B assay
# [14] = tested on: TK-10; assay: Cytotoxicity against Homo sapiens (human) TK10 cells after 48 hr by sulforhodamine B assay; details: TK-10, 48 h; for CC50: read-out: LC50 (the source's name)
# [15] = tested on: SW-620; assay: Cytotoxicity against Homo sapiens (human) SW620 cells after 48 hr by sulforhodamine B assay; details: SW-620, 48 h; for CC50: read-out: LC50 (the source's name)
# [16] = tested on: KM12; assay: Cytotoxicity against Homo sapiens (human) KM12 cells after 48 hr by sulforhodamine B assay; details: KM12, 48 h; for CC50: read-out: LC50 (the source's name)
# [17] = tested on: HCT-15; assay: Cytotoxicity against Homo sapiens (human) HCT15 cells after 48 hr by sulforhodamine B assay; details: HCT-15, 48 h; for CC50: read-out: LC50 (the source's name)
# [18] = tested on: HCT-116; assay: Cytotoxicity against Homo sapiens (human) HCT116 cells after 48 hr by sulforhodamine B assay; details: HCT-116, 48 h; for CC50: read-out: LC50 (the source's name)
# [19] = tested on: COLO 205; assay: Cytotoxicity against Homo sapiens (human) COLO205 cells after 48 hr by sulforhodamine B assay; details: COLO 205, 48 h; for CC50: read-out: LC50 (the source's name)
# [20] = tested on: NCI-H522; assay: Cytotoxicity against Homo sapiens (human) NCI-H522 cells after 48 hr by sulforhodamine B assay; details: NCI-H522, 48 h; for CC50: read-out: LC50 (the source's name)
# [21] = tested on: NCI-H226; assay: Cytotoxicity against Homo sapiens (human) NCI-H226 cells after 48 hr by sulforhodamine B assay; details: NCI-H226, 48 h; for CC50: read-out: LC50 (the source's name)
# [22] = tested on: HOP-92; assay: Cytotoxicity against Homo sapiens (human) HOP92 cells after 48 hr by sulforhodamine B assay; details: HOP-92, 48 h; for CC50: read-out: LC50 (the source's name)
# [23] = tested on: A549; assay: Cytotoxicity against Homo sapiens (human) A549 cells after 48 hr by sulforhodamine B assay; details: A549, 48 h; for CC50: read-out: LC50 (the source's name)
# [24] = tested on: RPMI-8226; assay: Cytotoxicity against Homo sapiens (human) RPMI8226 cells after 48 hr by sulforhodamine B assay; details: RPMI-8226, 48 h; for CC50: read-out: LC50 (the source's name)
# [25] = tested on: K562; assay: Cytotoxicity against Homo sapiens (human) K562 cells after 48 hr by sulforhodamine B assay; details: K562, 48 h; for CC50: read-out: LC50 (the source's name)
# [26] = tested on: SF-268; assay: Cytotoxicity against Homo sapiens (human) SF268 cells assessed as cell growth at 10^-4 M after 48 hr by […] assay; details: SF-268, 48 h, read-out: Activity
# [27] = tested on: NCI-H460; assay: Cytotoxicity against Homo sapiens (human) NCI-H460 cells assessed as cell growth at 10^-4 M after 48 hr by Alamar blue assay; details: NCI-H460, 48 h, read-out: Activity
compound,measurement,setting,value
ClCc1ccccc1Cn1cnc2c(Cl)ncnc21,GI50,[1],17.4 µM
same,"LC50 (lethal concentration, 50% cell kill)",[1],58.9 µM
same,TGI,[1],32.4 µM
same,GI50,[2],2.7 µM
same,TGI,[2],6.16 µM
same,CC50,[2],26.9 µM
same,GI50,[3],17.8 µM
same,LC50,[3],83.2 µM
same,TGI,[3],38 µM
same,GI50,[4],3.38 µM
same,LC50 (concentration killing 50% of cells),[4],45.7 µM
same,TGI,[4],12.3 µM
same,GI50,[5],3.31 µM
same,LC50 (concentration causing 50% net cell kill),[5],28.2 µM
same,TGI,[5],6.6 µM
same,GI50,[6],10.7 µM
same,LC50 (concentration killing 50% of cells),[6],66.1 µM
same,TGI,[6],26.3 µM
same,GI50,[7],2.88 µM
same,TGI,[7],11 µM
same,CC50,[7],39.8 µM
same,GI50,[8],5.37 µM
same,LC50,[8],> 100 µM
same,TGI,[8],> 100 µM
same,GI50,[9],10.7 µM
same,LC50 (concentration killing 50% of cells),[9],55 µM
same,TGI,[9],24 µM
same,GI50,[10],3.02 µM
same,LC50,[10],36.3 µM
same,TGI,[10],9.55 µM
same,GI50,[11],2.29 µM
same,LC50,[11],56.2 µM
same,TGI,[11],6.6 µM
same,GI50,[12],3.02 µM
same,LC50,[12],45.7 µM
same,TGI,[12],7.41 µM
same,GI50,[13],3.38 µM
same,LC50 (50% lethal concentration),[13],95.5 µM
same,TGI,[13],8.71 µM
same,GI50,[14],22.9 µM
same,TGI,[14],46.8 µM
same,CC50,[14],95.5 µM
same,GI50,[15],1.77 µM
same,TGI,[15],5.01 µM
same,CC50,[15],26.3 µM
same,GI50,[16],16.6 µM
same,TGI,[16],33.1 µM
same,CC50,[16],66.1 µM
same,GI50,[17],2.09 µM
same,TGI,[17],4.67 µM
same,CC50,[17],43.6 µM
same,GI50,[18],1.9 µM
same,TGI,[18],3.71 µM
same,CC50,[18],7.08 µM
same,GI50,[19],3.89 µM
same,TGI,[19],> 100 µM
same,CC50,[19],> 100 µM
same,GI50,[20],1.82 µM
same,TGI,[20],7.24 µM
same,CC50,[20],> 100 µM
same,GI50,[21],4.57 µM
same,TGI,[21],12.6 µM
same,CC50,[21],38.9 µM
same,GI50,[22],1.48 µM
same,TGI,[22],4.26 µM
same,CC50,[22],21.4 µM
same,GI50,[23],7.76 µM
same,TGI,[23],25.7 µM
same,CC50,[23],75.9 µM
same,GI50,[24],14.1 µM
same,TGI,[24],40.7 µM
same,CC50,[24],> 100 µM
same,GI50,[25],1.2 µM
same,TGI,[25],5.12 µM
same,CC50,[25],> 100 µM
same,growth at 100 µM,[26],0%
same,growth at 100 µM,[27],0%
ClCc1cccc(Cn2cnc3c(Cl)nc(Cl)nc32)c1,GI50,[1],2.39 µM
same,"LC50 (lethal concentration, 50% cell kill)",[1],27.5 µM
same,TGI,[1],6.6 µM
same,GI50,[2],1.9 µM
same,TGI,[2],3.71 µM
same,CC50,[2],7.24 µM
same,GI50,[3],12.3 µM
same,LC50,[3],57.5 µM
same,TGI,[3],26.9 µM
same,GI50,[4],5.49 µM
same,LC50 (concentration killing 50% of cells),[4],61.7 µM
same,TGI,[4],19.9 µM
same,GI50,[5],1.86 µM
same,LC50 (concentration causing 50% net cell kill),[5],6.45 µM
same,TGI,[5],3.46 µM
same,GI50,[6],1.86 µM
same,LC50 (concentration killing 50% of cells),[6],6.45 µM
same,TGI,[6],3.46 µM
same,GI50,[7],2.04 µM
same,TGI,[7],3.89 µM
same,CC50,[7],7.41 µM
same,GI50,[8],1.95 µM
same,LC50,[8],8.92 µM
same,TGI,[8],4.16 µM
same,GI50,[9],2.18 µM
same,LC50 (concentration killing 50% of cells),[9],40.7 µM
same,TGI,[9],14.1 µM
same,GI50,[10],1.69 µM
same,LC50,[10],6.31 µM
same,TGI,[10],3.23 µM
same,GI50,[11],1.99 µM
same,TGI,[11],4.36 µM
same,GI50,[12],1.95 µM
same,LC50,[12],7.24 µM
same,TGI,[12],3.71 µM
same,GI50,[13],2.13 µM
same,LC50 (50% lethal concentration),[13],11.8 µM
same,TGI,[13],4.67 µM
same,GI50,[14],1.73 µM
same,TGI,[14],3.98 µM
same,CC50,[14],8.91 µM
same,GI50,[15],1.58 µM
same,TGI,[15],3.46 µM
same,CC50,[15],7.76 µM
same,GI50,[16],1.82 µM
same,TGI,[16],3.8 µM
same,CC50,[16],7.94 µM
same,GI50,[17],2.39 µM
same,TGI,[17],6.91 µM
same,CC50,[17],> 100 µM
same,GI50,[18],1.62 µM
same,TGI,[18],3.09 µM
same,CC50,[18],5.88 µM
same,GI50,[19],2.23 µM
same,TGI,[19],5.37 µM
same,CC50,[19],> 100 µM
same,GI50,[20],2.69 µM
same,TGI,[20],5.37 µM
same,CC50,[20],17 µM
same,GI50,[21],3.23 µM
same,TGI,[21],10 µM
same,CC50,[21],40.7 µM
same,GI50,[22],1.82 µM
same,TGI,[22],3.63 µM
same,CC50,[22],7.08 µM
same,GI50,[23],3.09 µM
same,TGI,[23],10 µM
same,CC50,[23],52.5 µM
same,GI50,[24],3.31 µM
same,TGI,[24],> 100 µM
same,CC50,[24],> 100 µM
same,GI50,[25],1.58 µM
same,TGI,[25],> 100 µM
same,CC50,[25],> 100 µM
same,growth at 100 µM,[26],0%
same,growth at 100 µM,[27],0%
